system: HCV2aChLuc virus; assay: In vitro HCVcc entry assay: HCV2aChLuc virus infection of Huh7 cells, Renilla luciferase read-out; assay type: cell-based, HCV genotype 2a; settings: Hepatitis C virus, Huh-7, read-out: Activity class (IC50), tested according to the method of Example 3

| Structure (SMILES) | IC50 [nM] |
| --- | --- |
| COc1c(NC(=O)C(=O)c2ccc(OCCN3CCN(C(=O)OC(C)(C)C)CC3)c3ccccc23)cc(C(C)(C)C)cc1NS(C)(=O)=O [Compound 56] | 5 to 500 |
| COc1c(NC(=O)C(=O)c2ccc(OCCN3CC(C)OC(C)C3)c3ccccc23)cc(C(C)(C)C)cc1NS(C)(=O)=O (stereo not drawn) [Compound 57] | 5 to 500 |
| COc1c(NC(=O)C(=O)c2ccc(OCCN3CCNCC3)c3ccccc23)cc(C(C)(C)C)cc1NS(C)(=O)=O [Compound 58] | > 500 |
| CC(C)(C)c1cc(NC(=O)C(=O)c2ccc(OCCN3CCOCC3)c3ccccc23)n(C(C)(C)C)n1 [Compound 59] | > 500 |
| CC(C)(C)c1cc(NC(=O)C(=O)c2ccc(OCCN3CCOCC3)c3ccccc23)no1 [Compound 60] | > 500 |
| CC(C)(C)c1nnc(NC(=O)C(=O)c2ccc(OCCN3CCOCC3)c3ccccc23)s1 [Compound 61] | > 500 |
| Cc1ccc(C(C)C)cc1NC(=O)C(=O)c1ccc(OCCN2CCOCC2)c2ccccc12 [Compound 62] | 5 to 500 |
| Cc1ccc(C)c(NC(=O)C(=O)c2ccc(OCCN3CCOCC3)c3ccccc23)c1 [Compound 63] | > 500 |
| O=C(Nc1ccc2c(c1)CCC2)C(=O)c1ccc(OCCN2CCOCC2)c2ccccc12 [Compound 64] | > 500 |
| O=C(Nc1cccc2c1CCC2)C(=O)c1ccc(OCCN2CCOCC2)c2ccccc12 [Compound 65] | 5 to 500 |
| CC(C)(C)CCNC(=O)C(=O)c1ccc(OCCN2CCOCC2)c2ccccc12 [Compound 66] | > 500 |
| CC(C)(C)CC(C)(C)NC(=O)C(=O)c1ccc(OCCN2CCOCC2)c2ccccc12 [Compound 67] | > 500 |
| O=C(N[C@@H]1C[C@H]2CC[C@@H]1C2)C(=O)c1ccc(OCCN2CCOCC2)c2ccccc12 [Compound 68] | > 500 |
| CC1(C)[C@@H]2CC[C@@]1(C)[C@@H](NC(=O)C(=O)c1ccc(OCCN3CCOCC3)c3ccccc13)C2 [Compound 69] | > 500 |
| CC(C)(C)c1cc(NC(=O)C(=O)c2ccc(OCCN3CCOCC3)c3ccccc23)on1 [Compound 70] | > 500 |
| CCNC(=O)c1cc(C(C)(C)C)cc(NC(=O)C(=O)c2ccc(OCCN3CCOCC3)c3ccccc23)c1O [Compound 71] | 5 to 500 |
| COc1c(Cl)cc(C(C)(C)C)cc1NC(=O)C(=O)c1ccc(OCCN2CCOCC2)c2ccccc12 [Compound 72] | 5 to 500 |
| COc1ccc(C(C)(C)C)cc1NC(=O)C(=O)c1ccc(Nc2ccnc(N3CCOCC3)n2)c2ccccc12 [Compound 73] | > 500 |
| COc1c(NC(=O)C(=O)c2ccc(OCCN3CCOCC3)c3ccc(Cl)cc23)cc(C(C)(C)C)cc1NS(C)(=O)=O [Compound 74] | 5 to 500 |
| COc1c(NC(=O)C(=O)c2ccc(OC)c3ccccc23)cc(C(C)(C)C)cc1NS(C)(=O)=O [Compound 75] | 5 to 500 |
| COc1c(NC(=O)C(=O)c2ccc(OCCN3CCOCC3)c3cccc(Cl)c23)cc(C(C)(C)C)cc1NS(C)(=O)=O [Compound 76] | > 500 |
| COc1c(NC(=O)C(=O)c2ccc(OC)c3ccccc23)cc(C(C)(C)C)cc1C(N)=O [Compound 77] | > 500 |
| CCCS(=O)(=O)Nc1cc(C(C)(C)C)cc(NC(=O)C(=O)c2ccc(OC)c3ccccc23)c1OC [Compound 78] | 5 to 500 |

| Structure (SMILES) | IC50 [nM] |
| --- | --- |
| CCN(CC)CCOc1ccc(C(=O)C(=O)Nc2cc(C(C)(C)C)cc(NS(C)(=O)=O)c2OC)c2ccccc12 [Compound 79] | > 500 |
| COc1c(NC(=O)C(=O)c2ccc(OCCN(C)C)c3ccccc23)cc(C(C)(C)C)cc1NS(C)(=O)=O [Compound 80] | > 500 |
| O=C(Nc1cnc2ccccc2c1)C(=O)c1ccc(OCCN2CCOCC2)c2ccccc12 [Compound 81] | > 500 |
| O=C(Nc1cc(C(F)(F)F)ccc1Cl)C(=O)c1ccc(OCCN2CCOCC2)c2ccccc12 [Compound 82] | > 500 |
| O=C(Nc1cc(C(F)(F)F)ccc1Br)C(=O)c1ccc(OCCN2CCOCC2)c2ccccc12 [Compound 83] | > 500 |
| CCCS(=O)(=O)Nc1cc(C(C)(C)C)cc(NC(=O)C(=O)c2ccc(OCC(=O)c3ccc(OC)cc3)c3ccccc23)c1OC [Compound 84] | > 500 |
| COc1c(NC(=O)C(=O)c2ccc(OCC(N)=O)c3ccccc23)cc(C(C)(C)C)cc1NS(C)(=O)=O [Compound 85] | > 500 |
| COCCOCCOc1ccc(C(=O)C(=O)Nc2cc(C(C)(C)C)cc(NS(C)(=O)=O)c2OC)c2ccccc12 [Compound 86] | > 500 |
| CCCS(=O)(=O)Nc1cc(C(C)(C)C)cc(NC(=O)C(=O)c2ccc(N3CCC(CC(=O)OCC)CC3)c3ccccc23)c1OC [Compound 87] | > 500 |
| CC(C)(C)c1cc(C#N)cc(NC(=O)C(=O)c2ccc(Br)c3ccccc23)c1 [Compound 88] | > 500 |
| COc1c(Br)cc(C(C)(C)C)cc1NC(=O)C(=O)c1ccc(OCCN2CCOCC2)c2ccccc12 [Compound 89] | 5 to 500 |
| O=C(Nc1ccc2c(c1)OCCO2)C(=O)c1ccc(OCCN2CCOCC2)c2ccccc12 [Compound 90] | > 500 |
| COc1c(NC(=O)C(=O)c2ccc(OCCN3CCOCC3)c3ccccc23)cc(C(C)(C)C)cc1-c1nnn[nH]1 [Compound 91] | > 500 |
| COc1c(NC(=O)C(=O)c2ccc(OCC[N+]3([O-])CCOCC3)c3ccccc23)cc(C(C)(C)C)cc1NS(C)(=O)=O [Compound 92] | 5 to 500 |
| COc1c(NC(=O)C(=O)c2ccc(OCCN(CCOCc3ccccc3)CCOCc3ccccc3)c3ccccc23)cc(C(C)(C)C)cc1NS(C)(=O)=O [Compound 93] | > 500 |
| COc1c(C#N)cc(C(C)(C)C)cc1NC(=O)C(=O)c1ccc(-c2ccc(NCCC(C)(C)C)nc2)c2ccccc12 [Compound 94] | > 500 |
| COc1c(C#N)cc(C(C)(C)C)cc1NC(=O)C(=O)c1ccc(Nc2ccnc(N3CCCC3)n2)c2ccccc12 [Compound 95] | > 500 |
| COc1c(NC(=O)C(=O)c2ccc(OCCN3CC(C)(C)OC(C)(C)C3)c3ccccc23)cc(C(C)(C)C)cc1NS(C)(=O)=O [Compound 96] | 5 to 500 |
| COc1c(NC(=O)C(=O)c2ccc(OCCN3CCOCC3)c3ccccc23)cc(C(C)(C)C)cc1C(=O)N1CCNCC1 [Compound 97] | > 500 |
| COc1c(NC(=O)C(=O)c2ccc(OCCN3CCOCC3)c3ccccc23)cc(C(C)(C)C)cc1C(=O)N1CCN(C)CC1 [Compound 98] | > 500 |
| COc1c(NC(=O)C(=O)c2ccc(OCCN3CCOCC3)c3ccccc23)cc(C(C)(C)C)cc1C(=O)N1CCN(C(C)C)CC1 [Compound 99] | 5 to 500 |
| COc1c(NC(=O)C(=O)c2ccc(OCCN3CCOCC3)c3ccccc23)cc(C(C)(C)C)cc1C(=O)N1CCN(CC2CC2)CC1 [Compound 100] | > 500 |
| COc1c(NC(=O)C(=O)c2ccc(OCCN3CCOCC3)c3ccccc23)cc(C(C)(C)C)cc1C(=O)N1CCN(CCO)CC1 [Compound 101] | > 500 |

| Structure (SMILES) | IC50 [nM] |
| --- | --- |
| COc1c(NC(=O)C(=O)c2ccc(OCCN3CCOCC3)c3ccccc23)cc(C(C)(C)C)cc1C(=O)N1CCCN(C)CC1 [Compound 102] | > 500 |
| COc1c(NC(=O)C(=O)c2ccc(OCCN3CCOCC3)c3ccccc23)cc(C(C)(C)C)cc1C(=O)NC1CCN(C)CC1 [Compound 103] | > 500 |
| COc1c(NC(=O)C(=O)c2ccc(OCCN3CCOCC3)c3ccccc23)cc(C(C)(C)C)cc1C(=O)N1CC2CCC(C1)N2 [Compound 104] | > 500 |
| COc1c(NC(=O)C(=O)c2ccc(OCCN3CCOCC3)c3ccccc23)cc(C(C)(C)C)cc1C(=O)NC1CCNCC1 [Compound 105] | > 500 |
| COc1c(NC(=O)C(=O)c2ccc(OCCN3CCOCC3)c3ccccc23)cc(C(C)(C)C)cc1C(=O)N1CCCCC1CN(C)C (stereo not drawn) [Compound 106] | > 500 |
| COc1c(NC(=O)C(=O)c2ccc(OCCN3CCOCC3)c3ccccc23)cc(C(C)(C)C)cc1-n1ccnc1 [Compound 107] | 5 to 500 |
| COc1c(NC(=O)C(=O)c2ccc(OCCN3CCOCC3)c3ccccc23)cc(C(C)(C)C)cc1-n1ccnn1 [Compound 108] | 5 to 500 |
| CC(C)(C)c1cc(NC(=O)C(=O)c2ccc(OCCN3CCOCC3)c3ccccc23)cc(NS(C)(=O)=O)c1 [Compound 109] | 5 to 500 |
| COc1c(NC(=O)C(=O)c2ccc(OCCN3CCOCC3)c3ccccc23)cccc1NS(C)(=O)=O [Compound 110] | > 500 |
| COc1c(NC(=O)C(=O)c2ccc(OCCN3CCCCC3)c3ccccc23)cc(C(C)(C)C)cc1NS(C)(=O)=O [Compound 111] | 5 to 500 |
| Cc1ccc(Cl)cc1NC(=O)C(=O)c1ccc(OCCN2CCOCC2)c2ccccc12 [Compound 112] | > 500 |
| O=C(Nc1n[nH]c2ccccc12)C(=O)c1ccc(OCCN2CCOCC2)c2ccccc12 [Compound 113] | > 500 |
| O=C(NC1Cc2ccccc2C1)C(=O)c1ccc(OCCN2CCOCC2)c2ccccc12 [Compound 114] | > 500 |
| O=C(NC1CCc2ccccc21)C(=O)c1ccc(OCCN2CCOCC2)c2ccccc12 (stereo not drawn) [Compound 115] | > 500 |
| COc1c(NC(=O)C(=O)c2ccc(OCCN3CCOCC3)c3ccccc23)cc(C(F)(F)F)cc1NS(C)(=O)=O [Compound 116] | > 500 |
| COc1c(NC(=O)C(=O)c2ccc(OCCN3CCOCC3)c3ccccc23)cc(C(C)(C)C)cc1N(CCN1CCOCC1)S(C)(=O)=O [Compound 117] | > 500 |
| O=C(Nc1nc(Cl)ccc1[N+](=O)[O-])C(=O)c1ccc(OCCN2CCOCC2)c2ccccc12 [Compound 118] | > 500 |
| O=C(Nc1cc(Br)cnc1Cl)C(=O)c1ccc(OCCN2CCOCC2)c2ccccc12 [Compound 119] | 5 to 500 |
| COc1c(NC(=O)CCCCC2SCC3NC(=O)NC32)cc(C(C)(C)C)cc1NC(=O)C(=O)c1ccc(OCCN2CCOCC2)c2ccccc12 (stereo not drawn) [Compound 120] | 5 to 500 |
| COc1ccc(I)cc1NC(=O)C(=O)c1ccc(OCCN2CCOCC2)c2ccccc12 [Compound 121] | 5 to 500 |
| CC(C)(C)c1ccc(O)c(NC(=O)C(=O)c2ccc(OCCN3CCOCC3)c3ccccc23)c1 [Compound 122] | 5 to 500 |
| COc1c(NC(=O)C(=O)c2ccc(OCCCS(=O)(=O)N(C)C)c3ccccc23)cc(C(C)(C)C)cc1NS(C)(=O)=O [Compound 123] | 5 to 500 |
| COc1c(NC(=O)C(=O)c2ccc(Nc3ccnc(N4CCOCC4)n3)c3ccccc23)cc(C(C)(C)C)cc1C(N)=O [Compound 124] | > 500 |

Reference: patent US20110117055A1, “Methods of Treating Hepatitis C Virus with Oxoacetamide Compounds” (priority 2009, published 2011)
